# Reference: article PMC10119282, “Molecular characterization of AIFM2/FSP1 inhibition by iFSP1-like molecules” (Cell Death & Disease, 2023)
# How the values were obtained:
# [1] = tested on: Pfa1 Gpx4−/− overexpressing hFSP1 WT, hFSP1 F360L and mFSP1 WT; assay: Cell viability response to N-myristoyltransferase inhibitor IMP-1088; assay type: cell-based, murine
# Protocol: (§1) Cell Lines. 4-hydroxytamoxifen (TAM)-inducible Gpx4^−/− murine immortalized fibroblasts (Pfa1) were reported previously. These cells harbor two loxP-flanked Gpx4 alleles and stably express TAM inducible Cre recombinase allowing the genetic deletion of Gpx4 at will. For all experiments using Gpx4^−/− the well were treated with 4-hydroxitamoxifen (TAM) 1 µM. All cells were cultured with were cultured in DMEM-high glucose (4.5 g glucose/L) with 10% fetal bovine serum (FBS), Glutamax, and 1% penicillin/streptomycin (Gibco, Thermo Fischer) at 37 °C with 5% CO2 and verified to be negative for mycoplasma.
# (§2) Cell viability assays. Alamar Blue method: Cells were seeded on 96-well plates (2000 cells per well) and treated with the compounds RSL3, iFSP1 and (liproxstatin-1) after plating. Cell viability was assessed 48 h (unless stated otherwise) after treatment using Alamar Blue as an indicator of viable cells. Alamar blue solution was made by dissolving of 1 g resazurin sodium salt (Thermo Fischer) in 200 mL sterile PBS and sterile filtrated through a 0.22 µm filter. Stock solutions were stored at 4 °C. The working solution was made freshly by adding 200 µL of the stock solution to 25 mL growth media. After 2–4 h incubation time, viability was estimated by measuring the fluorescence using a 540/35 excitation filter and a 590/20 emission on a Spark® microplate reader (Tecan, Zürich, Switzerland).
# [2] = tested on: Pfa1 Gpx4−/− cells overexpressing human FSP1 (hFSP1); assay: Cell viability (Alamar blue), dose-response toxicity in Gpx4-knockout cells expressing hFSP1; assay type: cell-based, murine; details: cells treated with iFSP1
# Protocol: as §1, §2
# Codon-optimized Mus musculus (mouse) FSP1 (NP_001034283.1) and Homo sapiens (Human) FSP1 (NP_001185625.1) were synthesized by IDT as gBlocks^TM and subcloned into p442-IRES-blast vectors. The chimera constructs were generated based on the pairwise alignment between the gene of Homo sapiens (Human) and the Mus musculus (Mouse), all the chimeric constructs contain the murine isoform with one region exchanged to the human isoform. […]
# [3] = tested on: Pfa1 Gpx4−/− cell line overexpressing hFSP1, mFSP1 and hFSP1 F360L mutants; assay: BODIPY 581/591 C11 oxidation (flow cytometry); assay type: cell-based, murine; details: iFSP1 3 µM for 3 h with Lip-1; all conditions
# Protocol: In total, 150,000 cells per well were seeded on 6-well dishes one day prior to the experiment. […] Cells were incubated with C11-BODIPY (581/591) (1 μM) for 30 min at 37 °C before they were harvested by trypsinisation. Subsequently, cells were resuspended in 500 μL of fresh PBS (DPBS, Gibco) and analyzed using a 488-nm laser excitation laser and fluorescence recorded on a (FACS Canto II, BD Biosciences). Data was collected from the FL1 detector (C11-BODIPY, Invitrogen) with a 502LP and 530/30 BP filter. At least 20,000 events were analyzed per sample. Data was analyzed using FlowJo Software version 10.8.1.
# hFSP1 WT = molecular target: T1, hFSP1 WT (Homo sapiens, UniProt Q9BRQ8); assay: Competition MST against pre-formed complex of hFSP1 WT and FSP1-Tracer; assay type: binding; details: hFSP1 WT 5 µM and FSP1-Tracer 5 nM pre-formed complex
# T1 construct: HisSUMO (cleaved yes); made in house; host or cells: E. coli BL21
# T1 sequence (Q9BRQ8 1-373): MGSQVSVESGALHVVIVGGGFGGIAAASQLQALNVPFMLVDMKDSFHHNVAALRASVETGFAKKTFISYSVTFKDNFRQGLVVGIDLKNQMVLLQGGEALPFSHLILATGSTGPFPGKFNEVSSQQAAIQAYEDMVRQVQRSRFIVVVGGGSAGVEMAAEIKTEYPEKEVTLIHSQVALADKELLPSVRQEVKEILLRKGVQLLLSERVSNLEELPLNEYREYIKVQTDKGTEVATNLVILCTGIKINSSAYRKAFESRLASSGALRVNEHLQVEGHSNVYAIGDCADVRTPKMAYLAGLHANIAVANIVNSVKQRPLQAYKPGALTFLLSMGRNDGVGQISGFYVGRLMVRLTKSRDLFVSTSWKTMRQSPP
# Protocol: FSP1 (human isoform 1, UniProt Q9BRQ8-1) WT (hFSP1 WT) and F360L (hFSP1 F360L) were expressed in E.coli BL21 as HisSUMO fusion protein. Cells were grown in lysogeny broth medium at 18 °C and induced with 0.5 mM isopropyl-β-thiogalactoside at a cell density A600 of 0.6. Cells were collected after overnight expression by centrifugation, resuspended in lysis buffer ([…], 50 mM Tris-HCl pH 8, 1 mM TCEP, 20 mM imidazole, protease inhibitor, DNase) and lysed by sonication. Cell debris was removed by centrifugation (30,000 × g) at 4 °C for 30 min, after which an IMAC purification was performed. Briefly, a HisTrap crude FF (5 mL) column was equilibrated to lysis buffer, lysates were loaded via the sample pump and the column was then washed with 50 mL lysis buffer. During the elution with a gradient to 100% IMAC elution buffer (300 mM NaCl, 50 mM Tris-HCl pH 8, 1 mM TCEP, 400 mM imidazole) over 100 mL, 5 mL fractions were collected. The pooled fractions were dialysed overnight in the presence of SenP2 SUMO protease at a ratio of 40:1 FSP1:SenP2. Afterwards, a reverse IMAC purification was performed on a HisTrap crude FF (5 mL) column. IMAC eluates were analysed by SDS PAGE and concentrated to 15 mL (hFSP1 WT) and 5 mL (hFSP1 F360L), respectively. […] Pure fractions were pooled (C12—D11 for hFSP1 WT and C7—D4 for hFSP1 F360L), analysed by SDS-PAGE (Supplementary Fig. 4) and concentrated to 5.8 mL at 285.9 µM (hFSP1 WT) and 1.2 mL at 269.5 µM (FSP1 F360L), flash frozen in liquid N2 and stored at −80 °C.
# An MST buffer consisting of 1× phosphate-buffered saline (PBS; 137 mM NaCl, 2.7 mM KCl, 10 mM Na2HPO4, 1.8 mM KH2PO4, pH 7.4) with 2 mM reduced L-Glutathione (GSH, Sigma Aldrich, product number G4251) and 0.05% (v/v) Tween 20 (ITW Reagents, molecular biology grade, product number A4974) was used for all MST measurements. […] KD values were determined by applying a Hill-fit to a plot of Fnorm vs. hFSP1 WT/F360L concentration. […]
# [4] = tested on: Pfa1 cells overexpressing the mock, hFSP1 WT, hFSP1 F360L and mFSP1 WT; assay: Cell viability response to GPX4 inhibitor RSL3; assay type: cell-based, murine; details: Alamar blue viability
# Protocol: as §1, §2
structure (smiles),measurement,setting,value
Cc1nn(C)c(C)c1CCOc1c(-c2ccc3c(c2)c(CN(C)C)nn3C)ccc(F)c1F [IMP-1088],ferroptosis induction across FSP1 variants,[1],all mutants undergo ferroptosis similarly
"Clc1cccc(CN=C2Nc3ccccc3NC23CCNCC3)c1 [Lip-1, liproxstatin-1]",rescue from iFSP1-induced ferroptosis,[2],rescuing the cells
same,rescue of the iFSP1-induced increase in BODIPY-C11 signal,[3],could be rescued
NC(=O)C1=CN(C2OC(COP(=O)(O)OP(=O)(O)OCC3OC(n4cnc5c(N)ncnc54)C(O)C3O)C(O)C2O)C=CC1 (centres unmarked) [NADH],Ki,hFSP1 WT,0.455 µM
"COC(=O)c1ccc([C@@H]2c3[nH]c4ccccc4c3C[C@@H](C(=O)OC)N2C(=O)CCl)cc1 [RSL3, (1 S,3 R)-RSL3]",difference in response to the GPX4 inhibitor between cells overexpressing the FSP1 variants,[4],no difference in response
